# In patent US12312333B2, “SK channel positive allosteric modulators” (Chapman University, priority 2021, dated 2025):
# Biological target: T1, rat KCa2.2a (UniProt P0DP23+P70604)
# T1 construct: expressed in transfected cells; host or cells: HEK293
# Assay: Inside-out patch-clamp potentiation of KCa2.2a channels expressed in HEK293 cells
# Type: cell-based
# Details: for activity / potency on KCa2.2a channels / EC50: inside-out patch; for EC50: HEK293, 0.15 μM Ca2+, current at −90 mV, read-out: EC50 (mean ± SEM, μM) on potentiating KCa2.2a channels; for efficacy (Emax) on KCa2.2a channels: normalized to 10 μM Ca2+
# Experimental: The impact of adding one substituent group at C4 of the cyclohexane moiety of CyPPA with either electron donating (OH (2a), NH2 (2b), CH2OH (2c), and OCH3 (2d)) or electron-withdrawing groups (F (2e) and NO2 (2f)) was explored. The potency of the newly synthesized compounds compared to the template CyPPA was measured via inside-out patch clamp electrophysiology recordings with KCa2.2a channels heterologously expressed in HEK293 cells (FIG. 1A). […] The responses induced by 10 μM Ca^2+ are considered the maximal currents of the KCa2.2a channels. To evaluate the efficacy (Emax) of compounds on KCa2.2a channels, the current amplitudes at −90 mV in response to the maximal concentration of compounds were normalized to that obtained at 10 μM Ca^2+ (I/Imax (%), FIG. 1C).
# The effect of newly synthesized compounds on the KCa2.x/KCa3.1 channels was investigated as previously described (Nam, Y. W.; et al, Acta Physiol (Oxf) 2020, e13552; Nam, Y. W.; et al. Scientific reports 2018, 8 (1), 10749). Briefly, the rat KCa2.2a, human KCa2.1, human KCa2.3 or human KCa3.1 channels cDNA constructs were either generated in-house or through molecular cloning services (Genscript). The channel cDNAs, along with CaM and GFP, at a ratio of 7:4:2 (ORF ratios), were transfected into HEK293 cells by the calcium-phosphate method. KCa currents were recorded 1-2 days after transfection, with an Axon200B amplifier (Molecular Devices) at room temperature. The resistance of the patch electrodes ranged from 3-5 MΩ. The pipette solution contained (in mM): 140 KCl, 10 Hepes (pH 7.4), 1 MgSO4. The bath solution containing (in mM): 140 KCl, 10 Hepes (pH 7.2), 1 EGTA, 0.1 Dibromo-BAPTA, and 1 HEDTA was mixed with Ca^2+ to obtain the desired free Ca^2+ concentrations, calculated using the software by Chris Patton of Stanford University (https://somapp.ucdmc.ucdavis.edu/pharmacology/bers/maxchelator/webmaxc/webmaxcS.htm). The Ca^2+ concentrations were verified using a Ca^2+ calibration buffer kit (Thermo Fisher Scientific). Briefly, a standard curve was generated using the Ca^2+ buffers from the kit and a fluorescence Ca^2+ indicator. Then, the Ca^2+ concentrations of the bath solution were determined through interpolation on the standard curve.
# High resistance seals (>1 GΩ) were formed before inside-out patches were obtained. The seal resistance of inside-out patches was >1 GΩ, when the intracellular face was initially exposed to a zero-Ca^2+ bath solution. Currents were recorded by repetitive 1-s-voltage ramps from −100 mV to +100 mV from a holding potential of 0 mV. The currents were filtered at 2 kHz and digitized at a sampling frequency of 10 kHz. At the end of experiment, the integrity of the patch was examined by switching the bath solution back to the zero-Ca^2+ buffer. Data from patches, which maintained the seal resistance (>1 GΩ) after solution changes, were used for further analysis.
# To measure the effect of CyPPA (Alomone Labs) and newly synthesized compounds, the intracellular face was exposed to bath solutions with 0.15 μM Ca^2+. One minute after switching of bath solutions, ten sweeps with a 1-s interval were recorded at a series of concentrations of compound in the presence of 0.15 μM Ca^2+. The maximal KCa2.x/KCa3.1 current in response to 10 μM Ca^2+ was then recorded.
# Patch-clamp recordings were analyzed using Clampfit 10.5 (Molecular Devices LLC) and concentration-response curves were analyzed in GraphPad Prism 9.0.2 (GraphPad Software Inc.). To construct the concentration-dependent potentiation of channel activities by compound, the current amplitudes at −90 mV in response to various concentrations of the compound were normalized to that obtained at a maximal concentration of compound. The normalized currents were plotted as a function of the concentrations of the compound. EC50 values and Hill coefficients were determined by fitting the data points to a standard concentration-response curve (Y=100/(1+(X/EC50)^−Hill)). […]
Molecule,activity / potency on KCa2.2a channels (HEK293),EC50 [µM],efficacy (Emax) on KCa2.2a channels,"Emax (HEK293, current at −90 mV at maximal compound concentration normalized to 10 μM Ca2+, read-out: Emax on KCa2.2a channels (I/Imax)) [%]"
"Cc1cc(Nc2ccc(C(F)(F)F)cc2)nc(-n2nc(C)cc2C)n1 [Compound 2s, 2-(3,5-Dimethyl-1H-pyrazol-1-yl)-6-methyl-N-(4-(trifluoromethyl)-phenyl)pyrimidin-4-amine]",did not significantly change the potency compared with CyPPA,3.45 ± 0.42,–,–
"N^1-(2-Chloro-5-fluorophenyl)-6-(3,5-dimethyl-1H-pyrazol-1-yl)pyrimidine-2,4-diamine [Compound 3e]",–,> 100,–,–
"N^1-(3-Chloro-4-fluorophenyl)-6-(3,5-dimethyl-1H-pyrazol-1-yl)pyrimidine-2,4-diamine [Compound 3b]",–,> 100,–,–
"N^1-(5-Chloro-2-fluorophenyl)-6-(3,5-dimethyl-1H-pyrazol-1-yl)pyrimidine-2,4-diamine [Compound 3c]",–,> 100,–,–
"N^1-(3-Chloro-4-fluorophenyl)-2-(3,5-dimethyl-1H-pyrazol-1-yl)pyrimidine-4,6-diamine [Compound 4]",reduced potency,6.59 ± 0.64,retaining their efficacy,–
"Cc1cc(NCCc2ccc([N+](=O)[O-])cc2)nc(-n2nc(C)cc2C)n1 [Compound 2g, 2-(3,5-Dimethyl-1H-pyrazol-1-yl)-6-methyl-N-(4-nitrophenethyl)pyrimidin-4-amine]",–,> 100,–,–
"Cc1cc(N[C@@H](Cc2ccc(O)cc2)C(=O)O)nc(-n2nc(C)cc2C)n1 [Compound 2i, (2-(3,5-Dimethyl-1H-pyrazol-1-yl)-6-methylpyrimidin-4-yl)tyrosine]",–,> 100,–,–
"Cc1cc(NC2CCC(O)CC2)nc(-n2nc(C)cc2C)n1 (stereo not drawn) [Compound 2a, 4-((2-(3,5-Dimethyl-1H-pyrazol-1-yl)-6-methylpyrimidin-4-yl)amino)cyclohexan-1-ol]",–,> 100,–,–
"N^1-(2,5-Difluorophenyl)-6-(3,5-dimethyl-1H-pyrazol-1-yl)pyrimidine-2,4-diamine [Compound 3f]",–,> 100,–,–
"Cc1cc(NC2CCC(CO)CC2)nc(-n2nc(C)cc2C)n1 (stereo not drawn) [Compound 2c, (4-((2-(3,5-Dimethyl-1H-pyrazol-1-yl)-6-methylpyrimidin-4-yl)amino)cyclohexyl) methanol]",–,> 100,–,–
"Cc1cc(NC2CCC(F)CC2)nc(-n2nc(C)cc2C)n1 (stereo not drawn) [Compound 2e, 2-(3,5-Dimethyl-1H-pyrazol-1-yl)-N-(4-fluorocyclohexyl)-6-methylpyrimidin-4-amine]",–,> 100,–,–
"Cc1cc(NC(Cc2ccc(C#N)cc2)C(=O)O)nc(-n2nc(C)cc2C)n1 (stereo not drawn) [Compound 2h, 3-(4-Cyanophenyl)-2-((2-(3,5-dimethyl-1H-pyrazol-1-yl)-6-methylpyrimidin-4-yl)amino)propanoic acid]",–,> 100,–,–
"Cc1cc(Nc2ccc([N+](=O)[O-])cc2)nc(-n2nc(C)cc2C)n1 [Compound 2l, 2-(3,5-Dimethyl-1H-pyrazol-1-yl)-6-methyl-N-(4-nitrophenyl)pyrimidin-4-amine]",inactive,> 100,–,–
"Cc1cc(NC2CCC(N)CC2)nc(-n2nc(C)cc2C)n1 (stereo not drawn) [Compound 2b, N^1-(2-(3,5-Dimethyl-1H-pyrazol-1-yl)-6-methylpyrimidin-4-yl)cyclohexane-1,4-diamine]",–,> 100,–,–
"Cc1cc(NC2CCC([N+](=O)[O-])CC2)nc(-n2nc(C)cc2C)n1 (stereo not drawn) [Compound 2f, 2-(3,5-Dimethyl-1H-pyrazol-1-yl)-6-methyl-N-(4-nitrocyclohexyl)pyrimidin-4-amine]",–,> 100,–,–
"N^1-(3-Chloro-4-(trifluoromethyl)phenyl)-6-(3,5-dimethyl-1H-pyrazol-1-yl)pyrimidine-2,4-diamine [Compound 3g]",–,> 100,–,–
"Cc1cc(Nc2ccc(S)cc2)nc(-n2nc(C)cc2C)n1 [Compound 2k, 4-((2-(3,5-Dimethyl-1H-pyrazol-1-yl)-6-methylpyrimidin-4-yl)amino)-benzenethiol]",inactive,> 100,–,–
"Cc1cc(Nc2cc(Cl)cc(C(F)(F)F)c2)nc(-n2nc(C)cc2C)n1 [Compound 2u, N-(3-Chloro-5-(trifluoromethyl)phenyl)-2-(3,5-dimethyl-1H-pyrazol-1-yl)-6-methylpyrimidin-4-amine]",–,> 100,–,–
"N^1-(3-Chlorophenyl)-6-(3,5-dimethyl-1H-pyrazol-1-yl)pyrimidine-2,4-diamine [Compound 3a]",–,> 100,–,–

# The next lines start with the values.
activity / potency on KCa2.2a channels (HEK293),EC50 [µM],efficacy (Emax) on KCa2.2a channels,"Emax (HEK293, current at −90 mV at maximal compound concentration normalized to 10 μM Ca2+, read-out: Emax on KCa2.2a channels (I/Imax)) [%]",Molecule
–,> 100,–,–,"Cc1cc(NC(Cc2ccc(F)c(F)c2)C(=O)O)nc(-n2nc(C)cc2C)n1 (stereo not drawn) [Compound 2j, 3-(3,4-Difluorophenyl)-2-((2-(3,5-dimethyl-1H-pyrazol-1-yl)-6-methylpyrimidin-4-yl)amino)propanoic acid]"
–,1.99 ± 0.11,–,–,"Cc1cc(Nc2ccc(Cl)cc2F)nc(-n2nc(C)cc2C)n1 [Compound 2p, N-(4-Chloro-2-fluorophenyl)-2-(3,5-dimethyl-1H-pyrazol-1-yl)-6-methyl-pyrimidin-4-amine]"
–,3.27 ± 0.3,–,–,"Cc1cc(Nc2ccc(C(F)(F)F)c(Cl)c2)nc(-n2nc(C)cc2C)n1 [Compound 2t, N-(3-Chloro-4-(trifluoromethyl)phenyl)-2-(3,5-dimethyl-1H-pyrazol-1-yl)-6-methyl-pyrimidin-4-amine]"
reduced potency,4.32 ± 0.32,retaining their efficacy,–,"Cc1cc(C)n(-c2cc(C)c(Nc3ccc(F)c(Cl)c3)nn2)n1 [Compound 7, N-(3-Chloro-4-fluorophenyl)-6-(3,5-dimethyl-1H-pyrazol-1-yl)-4-methylpyridazin-3-amine]"
–,49.7 ± 4.38,–,77.3 ± 4.95,"COC1CCC(Nc2cc(C)nc(-n3nc(C)cc3C)n2)CC1 (stereo not drawn) [Compound 2d, 2-(3,5-Dimethyl-1H-pyrazol-1-yl)-N-(4-methoxycyclohexyl)-6-methylpyrimidin-4-amine]"
–,5.03 ± 0.59,–,–,"Cc1cc(Nc2cccc(F)c2F)nc(-n2nc(C)cc2C)n1 [Compound 2m, N-(2,3-Difluorophenyl)-2-(3,5-dimethyl-1H-pyrazol-1-yl)-6-methyl-pyrimidin-4-amine]"
–,2.97 ± 0.27,–,–,"Cc1cc(Nc2cc(F)ccc2Cl)nc(-n2nc(C)cc2C)n1 [Compound 2r, N-(2-Chloro-5-fluorophenyl)-2-(3,5-dimethyl-1H-pyrazol-1-yl)-6-methylpyrimidin-4-amine]"
–,3.59 ± 0.33,retained their efficacy,–,"Cc1cc(Nc2ccc(F)c(Cl)c2)nc(-c2coc(C)n2)n1 [Compound 6b, N-(3-Chloro-4-fluorophenyl)-6-methyl-2-(2-methyloxazol-4-yl)pyrimidin-4-amine]"
drastically reduced compared with 2o,38.8 ± 4.02,decreased compared with 2o,–,"Cc1cn(-c2nc(C)cc(Nc3ccc(F)c(Cl)c3)n2)cn1 [Compound 5b, N-(3-Chloro-4-fluorophenyl)-6-methyl-2-(4-methyl-1H-imidazol-1-yl)pyrimidin-4-amine]"
lower potency than 2q,13.8 ± 1.68,retained their efficacy,–,"Cc1cc(Nc2cc(Cl)ccc2F)nc(-c2coc(C)n2)n1 [Compound 6a, N-(5-Chloro-2-fluorophenyl)-6-methyl-2-(2-methyloxazol-4-yl)pyrimidin-4-amine]"
